# Laboratory results published in patent publication US9487511B2, “Cyclopropanamine compound and use thereof” (Takeda Pharmaceutical Company Limited, priority 2014, dated 2016).
# Where a name gives a salt, the structure may show the parent alone. Read-outs that look alike come from different tables or passages of the source.
# Tests used:
# [1] = target: MAO-A enzyme (Homo sapiens (Human), UniProt P21397); assay: Measurement of MAO-A inhibitory activity (MAO-Glo Assay); format: biochemical
# Experimental: The MAO-A inhibitory activity evaluation described below followed the protocol of MAO-Glo (registered trademark) Assay of Promega KK.
# A test compound dissolved in DMSO was added to a reaction solution (100 mM HEPES (pH 7.5), 5% glycerol) containing MAO-A enzyme (Sigma-Aldrich Co. LLC.), and the mixture was reacted at room temperature for 15 min. MAO substrate (Promega KK) was added to start the reaction. After reaction at room temperature for 60 min, Luciferine detection reagent (Promega KK) was added to terminate the reaction. After reaction at room temperature for 20 min with stirring, the luminescence was measured by Envision (PerkinElmer). The MAO-A inhibitory rate (%) of the test compound was calculated by the following formula. inhibitory rate (%)=(1−(test compound count−blank)÷(control−blank))×100
# The count of the MAO-A enzyme reaction mixture under compound non-addition conditions is indicated as control, and the count under compound non-addition and MAO-A enzyme non-addition conditions is indicated as blank.
# [2] = target: human LSD1(172-833) (Homo sapiens (Human), UniProt O60341); assay: Measurement of LSD1 inhibitory activity (time-resolved fluorescence, biotin-histone H3 mono methylated K4 peptide); format: biochemical; conditions: 60 min preincubation with enzyme at room temperature;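 note: after the compound–enzyme step, substrate reaction 5 min at room temperature in Tris-HCl pH 8.0 with BSA and DTT, halted by 2-PCPA, detected with europium anti-histone H3 antibody plus Streptavidin-XL665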
# Experimental: A test compound dissolved in DMSO was added by to a reaction solution (50 mM Tris-HCl (pH 8.0), 0.1% BSA, 1 mM DTT) containing LSD1 enzyme, and the mixture was reacted at room temperature for 60 min. […] After reaction at room temperature for 5 min, 2-PCPA solution was added to terminate the reaction. A detection solution (800 mM potassium fluoride, 0.1% BSA) containing europium-labeled anti-histone H3 antibody (Wako Pure Chemical Industries, Ltd.) and Streptavidin-XL665 (Cisbio) was further added, and the mixture was left standing for 60 min. […] The LSD1 inhibitory rate (%) of the test compound was calculated by the following formula. inhibitory rate (%)=(1−(test compound count−blank)÷(control−blank))×100
# The count of the LSD1 enzyme reaction mixture under compound non-addition conditions is indicated as control, and the count under compound non-addition and LSD1 enzyme non-addition conditions is indicated as blank. A concentration necessary for achieving 50% inhibitory rate was taken as ICH value.
# [3] = target: MAO-B enzyme (Homo sapiens (Human), UniProt P27338); assay: Measurement of MAO-B inhibitory activity (MAO-Glo Assay); format: biochemical
# Sequence of MAO-B enzyme (P27338 whole entry): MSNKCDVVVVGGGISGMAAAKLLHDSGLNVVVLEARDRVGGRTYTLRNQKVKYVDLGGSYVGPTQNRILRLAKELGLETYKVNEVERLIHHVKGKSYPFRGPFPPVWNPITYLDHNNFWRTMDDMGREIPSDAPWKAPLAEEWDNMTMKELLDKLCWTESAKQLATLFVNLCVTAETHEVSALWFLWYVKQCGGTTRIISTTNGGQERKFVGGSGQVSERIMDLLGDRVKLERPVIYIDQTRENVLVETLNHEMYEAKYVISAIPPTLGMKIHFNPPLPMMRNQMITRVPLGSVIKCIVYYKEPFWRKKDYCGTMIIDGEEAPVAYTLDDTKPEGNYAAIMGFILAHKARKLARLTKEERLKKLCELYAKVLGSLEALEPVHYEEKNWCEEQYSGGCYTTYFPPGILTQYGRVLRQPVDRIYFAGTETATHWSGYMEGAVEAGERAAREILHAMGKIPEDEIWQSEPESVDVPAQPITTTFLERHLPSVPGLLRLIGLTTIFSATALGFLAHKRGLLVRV
# Experimental: The MAO-B inhibitory activity evaluation described below followed the protocol of MAO-Glo (registered trademark) Assay of Promega KK.
# A test compound dissolved in DMSO was added to a reaction solution (100 mM HEPES (pH 7.5), 5% glycerol, 10% DMSO) containing MAO-B enzyme (Sigma-Aldrich Co. LLC.), and the mixture was reacted at room temperature for 15 min. MAO substrate (Promega KK) was added to start the reaction. After reaction at room temperature for 60 min, Luciferine detection reagent (Promega KK) (50 μL) was added to terminate the reaction. After reaction at room temperature for 20 min with stirring, the luminescence was measured by Envision (PerkinElmer). The MAO-B inhibitory rate (%) of the test compound was calculated by the following formula. inhibitory rate (%)=(1−(test compound count−blank)÷(control−blank))×100
# The count of the MAO-B enzyme reaction mixture under compound non-addition conditions is indicated as control, and the count under compound non-addition and MAO-B enzyme non-addition conditions is indicated as blank.
# [4] = Evaluation of blood cell number in mouse; format: in vivo; conditions: male ICR mice, oral, repeated 7 or 9 days
# Experimental: All compounds were repeatedly administered to the mice at a dose of 1 mg/kg, 10 mg/kg or 100 mg/kg (body weight) for 7 or 9 days. One day after the final administration of the compound, the whole blood was collected.
# Using Sysmex XT-1800i (Sysmex Corporation), the white blood cell number, red blood cell number, and platelet number in the collected whole blood per unit volume were measured. The influence of each compound on each blood cell number was determined by calculating the number with the mean of each blood cell number of the mouse without administration of the compound (0 mg/kg group), and the mean of each blood cell number in the whole blood of a mouse with the administration of the compound.
# Sequence of MAO-A enzyme (P21397 whole entry): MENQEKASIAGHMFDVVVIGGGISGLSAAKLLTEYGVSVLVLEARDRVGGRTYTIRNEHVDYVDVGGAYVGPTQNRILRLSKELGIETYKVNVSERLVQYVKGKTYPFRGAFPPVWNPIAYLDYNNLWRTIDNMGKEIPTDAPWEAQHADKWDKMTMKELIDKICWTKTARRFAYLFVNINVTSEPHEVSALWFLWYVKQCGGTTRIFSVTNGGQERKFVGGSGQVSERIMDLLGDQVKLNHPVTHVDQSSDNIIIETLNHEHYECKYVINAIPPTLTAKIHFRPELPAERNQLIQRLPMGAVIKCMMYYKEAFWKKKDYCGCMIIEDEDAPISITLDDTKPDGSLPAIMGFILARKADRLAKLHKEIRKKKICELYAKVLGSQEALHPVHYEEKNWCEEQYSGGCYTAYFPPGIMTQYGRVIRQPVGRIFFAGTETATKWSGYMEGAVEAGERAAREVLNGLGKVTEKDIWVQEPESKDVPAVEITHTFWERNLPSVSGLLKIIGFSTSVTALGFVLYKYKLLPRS
SMILES,IC50 [1],IC50 [2],IC50 [3],also measured
"NC1CCC(N[C@@H]2C[C@H]2c2cc(C(=O)NC3CCC(F)(F)CC3)cs2)CC1 (single isomer, unassigned) [Example 45, dihydrochloride]",> 100 µM,< 0.1 µM,> 100 µM,–
"Cc1c(NC(=O)c2csc([C@@H]3C[C@H]3NCC3CCOCC3)c2)cnn1C [Example 55, N-(1,5-dimethyl-1H-pyrazol-4-yl)-5-((1R,2R)-2-((tetrahydro-2H-pyran-4-ylmethyl)amino)cyclopropyl)thiophene-3-carboxamide dihydrochloride]",> 100 µM,< 0.1 µM,> 100 µM,–
"O=C(NC1CCCC1)c1csc(C2CC2NC2CCOCC2)c1 (single isomer, unassigned) [Example 39]",23 µM,< 0.1 µM,> 100 µM,–
"Cc1nnc(NC(=O)c2cc([C@H]3C[C@@H]3NCC3CCOCC3)cs2)s1 [Example 74, N-(5-methyl-1,3,4-thiadiazol-2-yl)-4-((1R,2S)-2-((tetrahydro-2H-pyran-4-ylmethyl)amino)cyclopropyl)thiophene-2-carboxamide hydrochloride]",> 100 µM,< 0.1 µM,> 100 µM,–
"Cc1ncc(NC(=O)c2csc([C@@H]3C[C@H]3NCC3CCOCC3)c2)s1 [Example 53, N-(2-methyl-1,3-thiazol-5-yl)-5-((1R,2R)-2-((tetrahydro-2H-pyran-4-ylmethyl)amino)cyclopropyl)thiophene-3-carboxamide dihydrochloride]",61 µM,< 0.1 µM,96 µM,–
"N[C@H]1CC[C@H](N[C@@H]2C[C@H]2c2cc(C(=O)NC3CCC(F)(F)CC3)cs2)CC1 [Example 46, 5-((1R,2R)-2-(trans-(4-aminocyclohexyl)amino)cyclopropyl)-N-(4,4-difluorocyclohexyl)thiophene-3-carboxamide dihydrochloride]",> 100 µM,< 0.1 µM,> 100 µM,–
"O=C(NC1CCC(F)(F)CC1)c1cc2c(c([C@@H]3C[C@H]3NCC3CCOCC3)c1)OCC2 (relative stereo) [Example 12, N-(4,4-difluorocyclohexyl)-7-(trans-2-((tetrahydro-2H-pyran-4-ylmethyl)amino)cyclopropyl)-2,3-dihydro-1-benzofuran-5-carboxamide hydrochloride]",> 100 µM,< 0.1 µM,> 100 µM,–
"Cc1nn(C)cc1NC(=O)c1csc([C@@H]2C[C@H]2NCC2CCOCC2)c1 [Example 54, N-(1,3-dimethyl-1H-pyrazol-4-yl)-5-((1R,2R)-2-((tetrahydro-2H-pyran-4-ylmethyl)amino)cyclopropyl)thiophene-3-carboxamide dihydrochloride]",> 100 µM,< 0.1 µM,> 100 µM,–
"Cc1nnc(NC(=O)c2cc([C@@H]3C[C@H]3NCC3CC3)c(C)s2)s1 [Example 95, 4-((1S,2R)-2-((cyclopropylmethyl)amino)cyclopropyl)-5-methyl-N-(5-methyl-1,3,4-thiadiazol-2-yl)thiophene-2-carboxamide fumarate]",–,–,–,"Platelets, Mean ([4]; 1 mg/kg): 1352 10^3 cells; Red blood cells, Mean ([4]; 1 mg/kg): 888 10^4 cells; White blood cells, Mean ([4]; 1 mg/kg): 422 10 cells; Platelets, Mean ([4]; 10 mg/kg): 1482 10^3 cells; Red blood cells, Mean ([4]; 10 mg/kg): 898 10^4 cells; White blood cells, Mean ([4]; 10 mg/kg): 408 10 cells"
"O=C(NC1CCC(F)(F)CC1)c1csc([C@@H]2C[C@H]2NC2CCN(C3CC3)CC2)c1 [Example 80, 5-((1R,2R)-2-((1-cyclopropylpiperidin-4-yl)amino)cyclopropyl)-N-(4,4-difluorocyclohexyl)thiophene-3-carboxamide hydrochloride]",> 100 µM,< 0.1 µM,> 100 µM,–
"O=C(NC1CCC(F)(F)CC1)c1csc([C@@H]2C[C@H]2NC2CCOCC2)c1 [Example 44, N-(4,4-difluorocyclohexyl)-5-((1R,2R)-2-(tetrahydro-2H-pyran-4-ylamino)cyclopropyl)thiophene-3-carboxamide hydrochloride]",> 100 µM,< 0.1 µM,100 µM,–
"O=C(O)c1ccc(CN[C@@H]2C[C@H]2c2cc(C(=O)NC3CCC(F)(F)CC3)cs2)cc1 [Example 110, 4-((((1R,2R)-2-(4-((4,4-difluorocyclohexyl)carbamoyl)-2-thienyl)cyclopropyl)amino)methyl)benzoic acid]",49 µM,< 0.1 µM,> 100 µM,–
"O=C(NC1CCOCC1)c1csc([C@@H]2C[C@H]2NCC2CCC2)c1 [Example 112, 5-((1R,2R)-2-((cyclobutylmethyl)amino)cyclopropyl)-N-(tetrahydro-2H-pyran-4-yl)thiophene-3-carboxamide]",> 100 µM,< 0.1 µM,> 100 µM,–
"Cc1nnc(NC(=O)c2csc(C3CC3NCC3CCOCC3)c2)s1 (single isomer, unassigned) [Example 40, dihydrochloride]",–,< 0.1 µM,> 100 µM,IC50 ([1]; dihydrochloride): > 100 µM
"O=C(NC1CCC(F)(F)CC1)c1csc([C@@H]2C[C@H]2NC2CCN(C(=O)C3CC3)CC2)c1 [Example 92, 5-((1R,2R)-2-((1-(cyclopropylcarbonyl)piperidin-4-yl)amino)cyclopropyl)-N-(4,4-difluorocyclohexyl)thiophene-3-carboxamide hydrochloride]",> 100 µM,< 0.1 µM,> 100 µM,–
"Cc1ncc(NC(=O)c2csc([C@@H]3C[C@H]3NC3CCOCC3)c2)s1 [Example 50, N-(2-methyl-1,3-thiazol-5-yl)-5-((1R,2R)-2-(tetrahydro-2H-pyran-4-ylamino)cyclopropyl)thiophene-3-carboxamide hydrochloride]",> 100 µM,< 0.1 µM,> 100 µM,–
"O=C(NC1CCC(F)(F)CC1)c1csc([C@@H]2C[C@H]2NCC2CC2)c1 (relative stereo) [Example 30, 5-(trans-2-((cyclopropylmethyl)amino)cyclopropyl)-N-(4,4-difluorocyclohexyl)thiophene-3-carboxamide hydrochloride]",> 100 µM,< 0.1 µM,> 100 µM,–
"O=C(NC1CC1)c1csc([C@@H]2C[C@H]2NCC2CCOCC2)c1 [Example 56, N-cyclopropyl-5-((1R,2R)-2-((tetrahydro-2H-pyran-4-ylmethyl)amino)cyclopropyl)thiophene-3-carboxamide hydrochloride]",> 100 µM,< 0.1 µM,> 100 µM,–
"Cc1sc([C@@H]2C[C@H]2NCC2CCOCC2)cc1C(=O)NC1CCC(F)(F)CC1 (relative stereo) [Example 66, N-(4,4-difluorocyclohexyl)-2-methyl-5-(trans-2-((tetrahydro-2H-pyran-4-ylmethyl)amino)cyclopropyl)thiophene-3-carboxamide hydrochloride]",98 µM,< 0.1 µM,> 100 µM,–
"O=C(NC1CCC(F)(F)CC1)c1csc([C@@H]2C[C@H]2NC2CCOCC2)c1 (relative stereo) [Example 31, N-(4,4-difluorocyclohexyl)-5-(trans-2-(tetrahydro-2H-pyran-4-ylamino)cyclopropyl)thiophene-3-carboxamide hydrochloride]",> 100 µM,< 0.1 µM,> 100 µM,–
"CC(=O)N1CCC(N[C@@H]2C[C@H]2c2cc(C(=O)NC3CCC(F)(F)CC3)cs2)CC1 [Example 91, 5-((1R,2R)-2-((1-acetylpiperidin-4-yl)amino)cyclopropyl)-N-(4,4-difluorocyclohexyl)thiophene-3-carboxamide hydrochloride]",> 100 µM,< 0.1 µM,> 100 µM,–
"Cc1cc(NC(=O)c2csc([C@@H]3C[C@H]3NCC3CCOCC3)c2)no1 [Example 81, N-(5-methyl-1,2-oxazol-3-yl)-5-((1R,2R)-2-((tetrahydro-2H-pyran-4-ylmethyl)amino)cyclopropyl)thiophene-3-carboxamide hydrochloride]",36 µM,< 0.1 µM,> 100 µM,–
"Cc1nnc(NC(=O)c2csc(C3CC3NCC3CCOCC3)c2)s1 (single isomer, unassigned) [Example 41, dihydrochloride]",–,< 0.1 µM,–,IC50 ([1]; dihydrochloride): 67 µM
"Cc1sc(C(=O)Nc2cnn(C)c2)cc1[C@@H]1C[C@H]1NC1CCC1 [Example 104, 4-((1S,2R)-2-(cyclobutylamino)cyclopropyl)-5-methyl-N-(1-methyl-1H-pyrazol-4-yl)thiophene-2-carboxamide dihydrochloride]",–,–,–,"Platelets, Mean ([4]; 1 mg/kg, dihydrochloride): 1370 10^3 cells; Red blood cells, Mean ([4]; 1 mg/kg, dihydrochloride): 870 10^4 cells; White blood cells, Mean ([4]; 1 mg/kg, dihydrochloride): 373 10 cells; Platelets, Mean ([4]; 10 mg/kg, dihydrochloride): 1404 10^3 cells; Red blood cells, Mean ([4]; 10 mg/kg, dihydrochloride): 872 10^4 cells; White blood cells, Mean ([4]; 10 mg/kg, dihydrochloride): 397 10 cells"
"Cc1nnc(NC(=O)c2cc([C@@H]3C[C@H]3NCC3CCOCC3)cs2)s1 [Example 72, N-(5-methyl-1,3,4-thiadiazol-2-yl)-4-((1S,2R)-2-((tetrahydro-2H-pyran-4-ylmethyl)amino)cyclopropyl)thiophene-2-carboxamide hydrochloride]",–,< 0.1 µM,–,–
"Cc1nnc(NC(=O)c2csc([C@@H]3C[C@H]3NCC3CC3)c2)s1 (relative stereo) [Example 23, 5-(trans-2-((cyclopropylmethyl)amino)cyclopropyl)-N-(5-methyl-1,3,4-thiadiazol-2-yl)thiophene-3-carboxamide dihydrochloride]",> 100 µM,–,> 100 µM,–
